test system: Aβ42; test: In vitro cell screening assay in H4 cells expressing human APP751: Aβ42 by sandwich ELISA; type: cell-based; conditions: compounds 0.003-10 μM, incubated overnight (16-18 h), sandwich ELISA of supernatant
How it was run: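 H4 neuroglioma cells stably expressing wild-type human APP751, switched to Pro293 medium and treated with compounds (0.003-10 μM, 0.33% DMSO) for 16-18 h at 37 °C. Supernatant Aβ42 quantified by sandwich ELISA (C-terminal capture, 4G8-HRP detection, A450); EC50 by sigmoidal fit normalized to DMSO and DAPT controls.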

Row | Compound | EC50 [µM]
1 | COc1nc(C2=NOCC(c3cc(F)c(F)c(F)c3)N2)ccc1-n1cnc(C)c1 (single isomer, unassigned; (-)) [Example 91A, (−)-3-(6-methoxy-5-(4-methyl-1H-imidazol-1-yl)pyridin-2-yl)-5-(3,4,5-trifluorophenyl)-5,6-dihydro-4H-1,2,4-oxadiazine] | > 3
2 | COc1nc(C2=NOCC(c3ccc(Cl)c(C4CC4)c3)N2)ccc1-n1cnc(C)c1 (single isomer, unassigned; (-)) [Example 239A, (−)-5-(4-chloro-3-cyclopropylphenyl)-3-(6-methoxy-5-(4-methyl-1H-imidazol-1-yl)pyridin-2-yl)-5,6-dihydro-4H-1,2,4-oxadiazine] | 0.92
3 | COc1nc(C2=NOCC(c3cc(F)c(Cl)c(F)c3)N2)ccc1-n1cnc(C)c1 (single isomer, unassigned; (+)) [Example 267B, (+)-5-(4-chloro-3,5-difluorophenyl)-3-(6-methoxy-5-(4-methyl-1H-imidazol-1-yl)pyridin-2-yl)-5,6-dihydro-4H-1,2,4-oxadiazine] | 0.0249
4 | COc1nc(C2=NOCC(c3ccc(C(F)(F)F)c(F)c3)N2)ccc1-n1cnc(C)c1 (single isomer, unassigned) [Example 121B, 5-(3-fluoro-4-(trifluoromethyl)phenyl)-3-(6-methoxy-5-(4-methyl-1H-imidazol-1-yl)pyridin-2-yl)-5,6-dihydro-4H-1,2,4-oxadiazine] | 0.0214
5 | COc1nc(C2=NOCC(c3ccc(C)c(Cl)c3)N2)ccc1-n1cnc(C)c1 (single isomer, unassigned; (-)) [Example 218A, (−)-5-(3-chloro-4-methylphenyl)-3-(6-methoxy-5-(4-methyl-1H-imidazol-1-yl)pyridin-2-yl)-5,6-dihydro-4H-1,2,4-oxadiazine] | 1.01
6 | COc1nc(C2=NOCC(c3ccc(Cl)c(C)c3)N2)ccc1-n1cnc(C)c1 (single isomer, unassigned; (+)) [Example 86B, (+)-5-(4-chloro-3-methylphenyl)-3-(6-methoxy-5-(4-methyl-1H-imidazol-1-yl)pyridin-2-yl)-5,6-dihydro-4H-1,2,4-oxadiazine] | 0.0104
7 | COc1nc(C2=NOCC(c3ccc(OC(F)F)cc3)N2)ccc1-n1cnc(C)c1 (single isomer, unassigned; (-)) [Example 93A, (−)-5-(4-(difluoromethoxy)phenyl)-3-(6-methoxy-5-(4-methyl-1H-imidazol-1-yl)pyridin-2-yl)-5,6-dihydro-4H-1,2,4-oxadiazine] | > 3
8 | CCC1CON=C(c2ccc(-n3cnc(C)c3)c(OC)n2)N1 (single isomer, unassigned) [Example 133A, 5-ethyl-3-(6-methoxy-5-(4-methyl-1H-imidazol-1-yl)pyridin-2-yl)-5,6-dihydro-4H-1,2,4-oxadiazine] | > 3
9 | COc1nc(C2=NOCC(c3cc4c(Cl)cccc4o3)N2)ccc1-n1cnc(C)c1 (single isomer, unassigned; (+)) [Example 96B, (+)-5-(4-chlorobenzofuran-2-yl)-3-(6-methoxy-5-(4-methyl-1H-imidazol-1-yl)pyridin-2-yl)-5,6-dihydro-4H-1,2,4-oxadiazine] | 0.0127
10 | COc1nc(C2=NOCC(c3nc4ccccc4o3)N2)ccc1-n1cnc(C)c1 (single isomer, unassigned; (-)) [Example 203A, (−)-2-(3-(6-methoxy-5-(4-methyl-1H-imidazol-1-yl)pyridin-2-yl)-5,6-dihydro-4H-1,2,4-oxadiazin-5-yl)benzo[d]oxazole] | 2.32
11 | COc1nc(C2=NOCC(c3cc4cc(C(F)(F)F)ccc4o3)N2)ccc1-n1cnc(C)c1 (single isomer, unassigned; (-)) [Example 259A, (−)-3-(6-methoxy-5-(4-methyl-1H-imidazol-1-yl)pyridin-2-yl)-5-(5-(trifluoromethyl)benzofuran-2-yl)-5,6-dihydro-4H-1,2,4-oxadiazine] | 2.46
12 | COc1nc(C2=NOCC(c3cc4cccc(C)c4o3)N2)ccc1-n1cnc(C)c1 (single isomer, unassigned) [Example 7A, 3-(6-Methoxy-5-(4-methyl-1H-imidazol-1-yl)pyridin-2-yl)-5-(7-methylbenzofuran-2-yl)-5,6-dihydro-4H-1,2,4-oxadiazine] | > 3
13 | COc1nc(C2=NOCC(c3cn(C)c4cc(F)ccc34)N2)ccc1-n1cnc(C)c1 (single isomer, unassigned; (+)) [Example 192B, (+)-5-(6-fluoro-1-methyl-1H-indol-3-yl)-3-(6-methoxy-5-(4-methyl-1H-imidazol-1-yl)pyridin-2-yl)-5,6-dihydro-4H-1,2,4-oxadiazine] | 0.0085
14 | COc1nc(C2=NOCC(C3CCCC3)N2)ccc1-n1cnc(C)c1 (single isomer, unassigned; (-)) [Example 171B, (−)-5-cyclopentyl-3-(6-methoxy-5-(4-methyl-1H-imidazol-1-yl)pyridin-2-yl)-5,6-dihydro-4H-1,2,4-oxadiazine] | 0.107
15 | COc1nc(C2=NOCC(c3cn(C)c4ccccc34)N2)ccc1-n1cnc(C)c1 (single isomer, unassigned; (+)) [Example 189A, (+)-3-(6-methoxy-5-(4-methyl-1H-imidazol-1-yl)pyridin-2-yl)-5-(1-methyl-1H-indol-3-yl)-5,6-dihydro-4H-1,2,4-oxadiazine] | 0.024
16 | COc1nc(C2=NOCC(c3cc4ccccc4n3C)N2)ccc1-n1cnc(C)c1 (single isomer, unassigned; (-)) [Example 205A, (−)-3-(6-methoxy-5-(4-methyl-1H-imidazol-1-yl)pyridin-2-yl)-5-(1-methyl-1H-indol-2-yl)-5,6-dihydro-4H-1,2,4-oxadiazine] | 1.73
17 | COc1nc(C2=NOCC(c3cn(C(C)C)c4cc(F)ccc34)N2)ccc1-n1cnc(C)c1 (single isomer, unassigned; (+)) [Example 219A, (+)-5-(6-fluoro-1-isopropyl-1H-indol-3-yl)-3-(6-methoxy-5-(4-methyl-1H-imidazol-1-yl)pyridin-2-yl)-5,6-dihydro-4H-1,2,4-oxadiazine] | 0.0092

More lines, now with the values ahead:

Row | EC50 [µM] | Compound
18 | 0.0257 | COc1nc(C2=NOCC(c3cc4c(F)cccc4o3)N2)ccc1-n1cnc(C)c1 (single isomer, unassigned; (-)) [Example 99B, (−)-5-(4-fluorobenzofuran-2-yl)-3-(6-methoxy-5-(4-methyl-1H-imidazol-1-yl)pyridin-2-yl)-5,6-dihydro-4H-1,2,4-oxadiazine]
19 | 1.06 | COc1nc(C2=NOCC(c3nn(C)c4ccccc34)N2)ccc1-n1cnc(C)c1 (single isomer, unassigned; (-)) [Example 124A, (−)-3-(6-methoxy-5-(4-methyl-1H-imidazol-1-yl)pyridin-2-yl)-5-(1-methyl-1H-indazol-3-yl)-5,6-dihydro-4H-1,2,4-oxadiazine]
20 | > 3 | COc1nc(C2=NOCC(c3coc4ccccc34)N2)ccc1-n1cnc(C)c1 (single isomer, unassigned) [Example 38A, 5-(benzofuran-3-yl)-3-(6-methoxy-5-(4-methyl-1H-imidazol-1-yl)pyridin-2-yl)-5,6-dihydro-4H-1,2,4-oxadiazine]
21 | 0.24 | COc1nc(C2=NOCC(c3cnc4ccc(Cl)cn34)N2)ccc1-n1cnc(C)c1 (single isomer, unassigned; (+)) [Example 269B, (+)-5-(6-chloroimidazo[1,2-a]pyridin-3-yl)-3-(6-methoxy-5-(4-methyl-1H-imidazol-1-yl)pyridin-2-yl)-5,6-dihydro-4H-1,2,4-oxadiazine]
22 | 0.0214 | COc1nc(C2=NOCC(c3ccc(Cl)c(C(F)F)c3)N2)ccc1-n1cnc(C)c1 (single isomer, unassigned; (+)) [Example 270B, (+)-5-(4-chloro-3-(difluoromethyl)phenyl)-3-(6-methoxy-5-(4-methyl-1H-imidazol-1-yl)pyridin-2-yl)-5,6-dihydro-4H-1,2,4-oxadiazine]
23 | 0.0101 | COc1nc(C2=NOCC(c3ccc4c(c3)CCC4)N2)ccc1-n1cnc(C)c1 (single isomer, unassigned; (+)) [Example 248B, (+)-5-(2,3-dihydro-1H-inden-5-yl)-3-(6-methoxy-5-(4-methyl-1H-imidazol-1-yl)pyridin-2-yl)-5,6-dihydro-4H-1,2,4-oxadiazine]
24 | > 3 | COc1nc(C2=NOCC(c3ccc4c(c3)OC(F)(F)O4)N2)ccc1-n1cnc(C)c1 (single isomer, unassigned; (-)) [Example 225A]
25 | 0.0297 | COc1nc(C2=NOCC(c3cc4cc(F)ccc4o3)N2)ccc1-n1cnc(C)c1 (single isomer, unassigned; (+)) [Example 84B, (+)-5-(5-fluorobenzofuran-2-yl)-3-(6-methoxy-5-(4-methyl-1H-imidazol-1-yl)pyridin-2-yl)-5,6-dihydro-4H-1,2,4-oxadiazine]
26 | 0.0704 | COc1cc2c(cc1Cl)c(C1CON=C(c3ccc(-n4cnc(C)c4)c(OC)n3)N1)cn2C (single isomer, unassigned; (-)) [Example 255A, (−)-5-(5-chloro-6-methoxy-1-methyl-1H-indol-3-yl)-3-(6-methoxy-5-(4-methyl-1H-imidazol-1-yl)pyridin-2-yl)-5,6-dihydro-4H-1,2,4-oxadiazine]
27 | 0.0095 | COc1nc(C2=NOCC(c3ccc(C(C)(C)C)cc3)N2)ccc1-n1cnc(C)c1 (single isomer, unassigned; (+)) [Example 235B, (+)-5-(4-(tert-butyl)phenyl)-3-(6-methoxy-5-(4-methyl-1H-imidazol-1-yl)pyridin-2-yl)-5,6-dihydro-4H-1,2,4-oxadiazine]
28 | 2.34 | COc1nc(C2=NOCC(c3cc4cccc(F)c4o3)N2)ccc1-n1cnc(C)c1 (single isomer, unassigned; (-)) [Example 89A, (−)-5-(7-fluorobenzofuran-2-yl)-3-(6-methoxy-5-(4-methyl-1H-imidazol-1-yl)pyridin-2-yl)-5,6-dihydro-4H-1,2,4-oxadiazine]

From patent publication US9802927B2, “Oxadiazine compounds and methods of use thereof” (Denali Therapeutics, Inc., priority 2015, dated 2017)
